Data as given in patent publication US9821000B2, “Compounds, compositions and corresponding uses for preventing and/or treating of dyslipidemia” (CENTRE NATIONAL DE LA RECHERCHE SCIENTIFIQUE (CNRS), priority 2013, dated 2017).

Tested on: QM strain
Test: Toxicity test on QM strain (growth inhibition haloes)
Type: cell-based, Saccharomyces cerevisiae
Details: after three days; for toxicity for cells that do not synthesize triglycerides: QM strain on agar medium; for haloes of growth inhibition (absence of colonies): QM strain, 5 μl drops on agar
Procedure: 5 μl drops of OAG, LPA or oleic acid were deposited, from stock solutions in the concentrations indicated, on the surface of an agar medium on which the QM strain had been preliminarily spread. […] These haloes are on the contrary not observed in the presence of LPA and OAG.
At the same time, wild strains (WT) and QM are cultivated in aerobic conditions under stirring and at 28° C., in a YPG liquid medium before seeding 3500 cells per cm^2 of YPG+agar 2% (m/v). Following this transfer to solid medium, 1 μL drops of solutions of different compounds at 1, 10 and 100 mM in DMSO or EtOH are deposited on the surface of the agar. Separately, deposits of DMSO and EtOH are also made in order to assess the intrinsic toxicity of these two solvents. After three days of culture of 28° C., the toxicity of the tested compounds is evaluated by comparing the diameters of the growth inhibition haloes obtained for the deposits of undissolved solvents with those of the deposits of different concentrations of compounds tested.

| Compound | toxicity for cells that do not synthesize triglycerides | haloes of growth inhibition (absence of colonies) |
| --- | --- | --- |
| CCCCCCCC/C=C\CCCCCCCC(=O)OC[C@@H](O)COP(=O)(O)O [LPA, 1-oleoyl-sn-glycerol-3-phosphate] | not toxic | not observed |
| CCCCCCCC/C=C\CCCCCCCC(=O)OC[C@H](CO)OC(C)=O [OAG, 1-oleoyl-2-acetyl-sn-glycerol] | not toxic | not observed |
